Patent US20170252350A1, “SMALL MOLECULE IRE1-ALPHA INHIBITORS” (Cornell University, priority 2016, published 2017)
“And” between values parts separate entries of the source, which are not always exact repeats. Identical values can stand only once.

biological target: T1, IRE1α (Homo sapiens, UniProt O75460); experiment: In vitro FRET assay of IRE1α endoribonuclease activity (XBP1 RNA hairpin probe); assay type: biochemical; conditions: SignalChem IRE1α protein 2 nM, fluorescence read over 30 minutes
T1 construct: purchased SignalChem
Source text: To evaluate potential small molecule IRE1 inhibitors, a Förster resonance energy transfer (FRET)-based small molecule IRE1 screening system was used. In brief, a small XBP1-mimetic RNA hairpin containing sequence features required for IRE1α-mediated splicing has been synthesized with the fluorophore 6FAM attached to the 5′ end and the quenching dye Black Hole Quencher 1 (BHQ1) attached to the 3′ end. When the hairpin is intact, 6FAM fluorescence is completely absorbed by BHQ1; however, IRE1α-mediated cleavage of the RNA hairpin leads to an increase in the fluorescence signal. The inventors also incorporated a point mutant version of this same RNA hairpin that is resistant to IRE1α-mediated cleavage to control for non-specific RNAse contamination (FIG. 2).
To perform the in vitro FRET assay, 1× complete assay buffer (CAB; […], 50 mM sodium citrate pH 7.15, 1 mM magnesium acetate, 0.02% tween 20) was used to dilute SignalChem IRE1α protein to a final concentration of 2 nM. Selected compounds were serially diluted with DMSO in a non-binding black 384-well plate for a total of 15 μl in each well. 2 μl of the serially diluted compound or DMSO control were then added to new wells containing 98 μl of 1×CAB, for a total volume of 100 μl, 10 μl of which were then transferred to wells of a new plate. 5 μof the diluted IRE1α was then added to each well. 5 μl of a […] XBP1 RNA probe was then added to each well. Fluorescence was then read over 30 minutes in kinetic mode (485/515 nm).
Two RNA probes were used, XBP1 wildtype (CAUGUCCGCAGCACAUG; SEQ ID NO: 1) which is able to be spliced by active IRE1α or XBP1 mutant (CAUGUCCCCAGCACAUG; SEQ ID NO: 2) which is unable to be spliced. Each probe contained a 5′ 6-FAM modification and a 3′ IOWA Black FQ modification, […]

T1 sequence (O75460 19-977): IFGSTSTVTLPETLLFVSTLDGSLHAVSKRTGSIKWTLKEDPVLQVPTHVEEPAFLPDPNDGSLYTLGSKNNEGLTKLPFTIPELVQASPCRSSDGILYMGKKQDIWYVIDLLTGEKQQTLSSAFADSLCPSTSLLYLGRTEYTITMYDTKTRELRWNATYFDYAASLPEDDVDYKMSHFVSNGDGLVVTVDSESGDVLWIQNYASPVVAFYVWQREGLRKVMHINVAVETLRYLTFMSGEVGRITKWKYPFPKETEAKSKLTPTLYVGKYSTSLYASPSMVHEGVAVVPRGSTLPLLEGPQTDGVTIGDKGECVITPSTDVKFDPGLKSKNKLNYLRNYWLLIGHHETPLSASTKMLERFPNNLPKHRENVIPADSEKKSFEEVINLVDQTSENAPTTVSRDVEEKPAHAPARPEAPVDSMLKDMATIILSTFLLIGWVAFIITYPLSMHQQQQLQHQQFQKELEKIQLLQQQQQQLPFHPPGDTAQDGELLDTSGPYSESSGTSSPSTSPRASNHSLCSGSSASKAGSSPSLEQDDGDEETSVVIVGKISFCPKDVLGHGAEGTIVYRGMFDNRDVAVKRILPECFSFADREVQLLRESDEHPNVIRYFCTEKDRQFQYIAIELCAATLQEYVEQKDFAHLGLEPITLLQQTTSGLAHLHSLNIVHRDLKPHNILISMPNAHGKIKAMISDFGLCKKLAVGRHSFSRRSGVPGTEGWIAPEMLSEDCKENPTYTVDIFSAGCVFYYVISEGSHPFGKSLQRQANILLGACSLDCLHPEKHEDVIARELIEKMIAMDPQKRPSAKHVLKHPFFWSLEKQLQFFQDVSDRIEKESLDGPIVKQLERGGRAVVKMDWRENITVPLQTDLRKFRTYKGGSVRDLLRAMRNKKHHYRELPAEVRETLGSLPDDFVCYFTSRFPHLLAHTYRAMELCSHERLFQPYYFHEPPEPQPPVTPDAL

Row | Compound | EC50
1 | COc1cc(C#Cc2cc(NC(=O)Nc3ccc(CN4CCN(C)CC4)c(C(F)(F)F)c3)nn2C)ccn1 [Compound A8] | ≤ 5 µM and 5 to 50 µM
2 | CN1CCN(Cc2ccc(NC(=O)Nc3cc(C#Cc4cc[nH]c(=O)c4)n(C)n3)cc2C(F)(F)F)CC1 [Compound A15] | 5 to 50 µM
3 | CN1CCN(Cc2ccc(NC(=O)Nc3cc(C#Cc4ccc(N)cc4)n(C)n3)cc2C(F)(F)F)CC1 [Compound A18] | 50 to 100 µM
4 | Cn1nc(NC(=O)Nc2ccc(CN3CCCCC3)c(C(F)(F)F)c2)cc1C#Cc1ccc(N)nc1 [Compound A24] | 5 to 50 µM
5 | Cn1nc(NC(=O)Nc2ccc(CN3CCOCC3)c(C(F)(F)F)c2)cc1C#Cc1ccc(N)nc1 [Compound A25] | 5 to 50 µM
6 | CN1CCN(Cc2ccc(NC(=O)Nc3nnc(C#Cc4ccc(N)nc4)s3)cc2C(F)(F)F)CC1 [Compound A23] | ≤ 5 µM
7 | CN1CCN(Cc2ccc(NC(=O)Nc3cc(C#Cc4n[nH]c5cccnc45)n(C)n3)cc2C(F)(F)F)CC1 [Compound A14] | ≤ 5 µM
8 | CN1CCN(Cc2ccc(NC(=O)Nc3cc(C#Cc4ccccn4)n(C)n3)cc2C(F)(F)F)CC1 [Compound A16] | ≤ 5 µM
9 | CN1CCN(Cc2ccc(NC(=O)Nc3cc(C#Cc4cncc(N)c4)n(C)n3)cc2C(F)(F)F)CC1 [Compound A21] | ≤ 5 µM
10 | CN1CCN(Cc2ccc(NC(=O)Nc3cc(C#Cc4cnccn4)n(C)n3)cc2C(F)(F)F)CC1 [Compound A19] | ≤ 5 µM
11 | Cn1nc(NC(=O)Nc2ccc(CN3CCN(CCO)CC3)c(C(F)(F)F)c2)cc1C#Cc1ccc(N)nc1 [Compound A22] | ≤ 5 µM
12 | CN1CCN(Cc2ccc(NC(=O)Nc3cc(C#Cc4cnc5cccnn45)n(C)n3)cc2C(F)(F)F)CC1 [Compound A3] | ≤ 5 µM
13 | CN1CCN(Cc2ccc(NC(=O)Nc3cc(C#Cc4ccnc(N)c4)n(C)n3)cc2C(F)(F)F)CC1 [Compound A7] | 5 to 50 µM

More lines, now with the values ahead:

Row | EC50 | Compound
14 | ≤ 5 µM | CN1CCN(Cc2ccc(NC(=O)Nc3cc(C#Cc4ccc(C#N)nc4)n(C)n3)cc2C(F)(F)F)CC1 [Compound A17]
15 | ≤ 5 µM | CN1CCN(Cc2ccc(NC(=O)Nc3cc(C#Cc4cnc5cnccn45)n(C)n3)cc2C(F)(F)F)CC1 [Compound A5]
16 | ≤ 5 µM | CN1CCN(Cc2ccc(NC(=O)Nc3cc(C#Cc4ccc(N)nc4)n(C)n3)cc2C(F)(F)F)CC1 [Compound A2]
17 | ≤ 5 µM | Cn1nc(NC(=O)Nc2cccc(C(F)(F)F)c2)cc1C#Cc1ccc(N)nc1 [Compound A20]
18 | ≤ 5 µM | CN1CCN(Cc2ccc(NC(=O)Nc3cc(C#Cc4cnc5ccccn45)n(C)n3)cc2C(F)(F)F)CC1 [Compound A4]
19 | ≤ 5 µM | CN1CCN(Cc2ccc(NC(=O)Nc3cc(C#Cc4cncc5nccn45)n(C)n3)cc2C(F)(F)F)CC1 [Compound A6]
20 | ≤ 5 µM | CN1CCN(Cc2ccc(NC(=O)Nc3cc(C#Cc4cnc(N)cn4)n(C)n3)cc2C(F)(F)F)CC1 [Compound A9]
21 | ≤ 5 µM | CN1CCN(Cc2ccc(NC(=O)Nc3cc(C#Cc4ccncc4)n(C)n3)cc2C(F)(F)F)CC1 [Compound A10]
22 | ≤ 5 µM | CN1CCN(Cc2ccc(NC(=O)Nc3cc(C#Cc4cncn4C)n(C)n3)cc2C(F)(F)F)CC1 [Compound A13]
23 | ≤ 5 µM | CN1CCN(Cc2ccc(NC(=O)Nc3cc(C#Cc4cc(N)[nH]n4)n(C)n3)cc2C(F)(F)F)CC1 [Compound A11]
24 | ≤ 5 µM | CN1CCN(Cc2ccc(NC(=O)Nc3cc(C#Cc4cn[nH]c4)n(C)n3)cc2C(F)(F)F)CC1 [Compound A12]
25 | ≤ 5 µM | CN1CCN(Cc2ccc(NC(=O)Nc3cc(C#Cc4cccnc4)n(C)n3)cc2C(F)(F)F)CC1 [Compound A1]

system: myeloid dendritic cells; experiment: Lipid accumulation (BODIPY 493/503) in myeloid dendritic cells exposed to ovarian cancer ascites supernatants; assay type: cell-based, mouse; conditions: not given

Row | Compound | intracellular lipid accumulation
26 | vitamin E | suppressed
